Test results from patent publication US8530493B2, “Indolopyridines as Eg5 kinesin modulators” (4SC AG, priority 2006, dated 2013).

tested on: RKO p21 uninduced (proliferating) colon adenocarcinoma cells; assay: Alamar Blue cell viability assay, RKO p21 uninduced (proliferating); format: cell-based; conditions: Homo sapiens, Table B3, anti-proliferative/cytotoxic activity, 72 hours, read-out: −log EC50 RKO p21 uninduced (proliferating) (converted)
In short: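 RKO p21 or p27 subclones grown without Ponasterone A, i.e. proliferating, exposed 24 h after seeding to semi-log compound dilutions in DMEM/10% FCS (1% DMSO controls) for 72 h at 37° C. Alamar Blue fluorescence (544/590 nm) read relative to untreated cells; EC50 from dose-response curves, given as −log EC50 (mol/l).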

SMILES	EC50
C[C@@]12Cc3c([nH]c4ccc(Br)cc34)[C@@H](c3cccc(O)c3)N1C(=O)N(CCCNCCO)C2=O (racemic) [Example 235, (3aSR,10RS)-6-Bromo-2-[3-(2-hydroxy-ethylamino)-propyl]-10-(3-hydroxy-phenyl)-3a-methyl-3a,4,9,10-tetrahydro-2,9,10a-triaza-cyclopenta[b]fluorene-1,3-dione]	≤ 39.8 nM
C[C@@]12Cc3c([nH]c4ccc(OC(F)F)cc34)[C@@H](c3cccc(O)c3)N1C(=O)N(CCCN1CCOCC1)C2=O (racemic) [Example 236, (3aSR,10RS)-6-(1,1-Difluoro-methoxy)-10-(3-hydroxy-phenyl)-3a-methyl-2-(3-morpholin-4-yl-propyl)-3a,4,9,10-tetrahydro-2,9,10a-triaza-cyclopenta[b]fluorene-1,3-dione]	39.8 to 251 nM
C[C@@]12Cc3c([nH]c4ccc(OC(F)F)cc34)[C@@H](c3cccc(O)c3)N1C(=O)N(CCCN1CCCC1)C2=O (racemic) [Example 237, (3aSR,10RS)-6-(1,1-Difluoro-methoxy)-10-(3-hydroxy-phenyl)-3a-methyl-2-(3-pyrrolidin-1-yl-propyl)-3a,4,9,10-tetrahydro-2,9,10a-triaza-cyclopenta[b]fluorene-1,3-dione]	≤ 39.8 nM
C[C@@]12Cc3c([nH]c4ccc(OC(F)F)cc34)[C@@H](c3cccc(O)c3)N1C(=O)N(CCCN1CC=CC1)C2=O (racemic) [Example 238, (3aSR,10RS)-6-(1,1-Difluoro-methoxy)-2-[3-(2,5-dihydro-pyrrol-1-yl)-propyl]-10-(3-hydroxy-phenyl)-3a-methyl-3a,4,9,10-tetrahydro-2,9,10a-triaza-cyclopenta[b]fluorene-1,3-dione]	≤ 39.8 nM
C[C@@]12Cc3c([nH]c4ccc(OC(F)F)cc34)[C@@H](c3cccc(O)c3)N1C(=O)N(CCCN1CCCCC1)C2=O (racemic) [Example 239, (3aSR,10RS)-6-(1,1-Difluoro-methoxy)-10-(3-hydroxy-phenyl)-3a-methyl-2-(3-piperidin-1-yl-propyl)-3a,4,9,10-tetrahydro-2,9,10a-triaza-cyclopenta[b]fluorene-1,3-dione]	≤ 39.8 nM
CN1CCN(CCCN2C(=O)N3[C@H](c4cccc(O)c4)c4[nH]c5ccc(OC(F)F)cc5c4C[C@@]3(C)C2=O)CC1 (racemic) [Example 240, (3aSR,10RS)-6-(1,1-Difluoro-methoxy)-10-(3-hydroyx-phenyl)-3a-methyl-2-[3-(4-methyl-piperazin-1-yl)-propyl]-3a,4,9,10-tetrahydro-2,9,10a-triaza-cyclopenta[b]fluorene-1,3-dione]	39.8 to 251 nM
CC(=O)N1CCN(CCCN2C(=O)N3[C@H](c4cccc(O)c4)c4[nH]c5ccc(OC(F)F)cc5c4C[C@@]3(C)C2=O)CC1 (racemic) [Example 241, (3aSR,10RS)-2-[3-(4-Acetyl-piperazin-1-yl)-propyl]-6-(1,1-difluoro-methoxy)-10-(3-hydroxy-phenyl)-3a-methyl-3a,4,9,10-tetrahydro-2,9,10a-triaza-cyclopenta[b]fluoroene-1,3-dione]	39.8 to 251 nM
C[C@@]12Cc3c([nH]c4ccc(OC(F)F)cc34)[C@@H](c3cccc(O)c3)N1C(=O)N(CCCN1CC=CCC1)C2=O (racemic) [Example 242, (3aSR,10RS)-6-(1,1-Difluoro-methoxy)-2-[3-(3,6-dihydro-2H-pyridin-1-yl)-propyl]-10-(3-hydroxy-phenyl)-3a-methyl-3a,4,9,10-tetrahydro-2,9,10a-triaza-cyclopenta[b]fluorene-1,3-dione]	≤ 39.8 nM
C[C@@]12Cc3c([nH]c4ccc(OC(F)F)cc34)[C@@H](c3cccc(O)c3)N1C(=O)N(CCCN1CCCCCC1)C2=O (racemic) [Example 243, (3aSR,10RS)-2-(3-Azepan-1-yl-propyl)-6-(1,1-difluoro-methoxy)-10-(3-hydroxy-phenyl)-3a-methyl-3a,4,9,10-tetrahydro-2,9,10a-triaza-cyclopenta[b]fluorene-1,3-dione]	≤ 39.8 nM
CC1CCN(CCCN2C(=O)N3[C@H](c4cccc(O)c4)c4[nH]c5ccc(OC(F)F)cc5c4C[C@@]3(C)C2=O)CC1 (racemic) [Example 244, (3aSR,10RS)-6-(1,1-Difluoro-methoxy)-10-(3-hydroxy-phenyl)-3a-methyl-2-[3-(4-methyl-piperidin-1-yl)-propyl]-3a,4,9,10-tetrahydro-2,9,10a-triaza-cyclopenta[b]fluorene-1,3-dione]	39.8 to 251 nM
CCN(C)CCCN1C(=O)N2[C@H](c3cccc(O)c3)c3[nH]c4ccc(OC(F)F)cc4c3C[C@@]2(C)C1=O (racemic) [Example 247, (3aSR,10RS)-6-(1,1-Difluoro-methoxy)-2-[3-(ethyl-methyl-amino)-propyl]-10-(3-hydroxy-phenyl)-3a-methyl-3a,4,9,10-tetrahydro-2,9,10a-triaza-cyclopenta[b]fluorene-,3-dione]	≤ 39.8 nM
CNCCN1C(=O)N2[C@H](c3cccc(O)c3)c3[nH]c4cc(F)c(OC)cc4c3C[C@@]2(C)C1=O (racemic) [Example 248, (3aSR,10RS)-7-Fluoro-10-(3-hydroxy-phenyl)-6-methoxy-3a-methyl-2-(2-methylamino-ethyl)-3a,4,9,10-tetrahydro-2,9,10a-triaza-cyclopenta[b]fluorene-1,3-dione]	39.8 to 251 nM
CCNCCN1C(=O)N2[C@H](c3cccc(O)c3)c3[nH]c4cc(F)c(OC)cc4c3C[C@@]2(C)C1=O (racemic) [Example 249, (3aSR,10RS)-2-(2-Ethylamino-ethyl)-7-fluoro-10-(3-hydroxy-phenyl)-6-methoxy-3a-methyl-3a,4,9,10-tetrahydro-2,9,10a-triaza-cyclopenta[b]fluorene-1,3-dione]	≤ 39.8 nM
COc1cc2c3c([nH]c2cc1F)[C@@H](c1cccc(O)c1)N1C(=O)N(CCNC(C)C)C(=O)[C@]1(C)C3 (racemic) [Example 250, (3aSR,10RS)-7-Fluoro-10-(3-hydroxy-phenyl)-2-(2-isopropylamino-ethyl)-6-methoxy-3a-methyl-3a,4,9,10-tetrahydro-2,9,10a-triaza-cyclopenta[b]fluorene-1,3-dione]	≤ 39.8 nM
COc1cc2c3c([nH]c2cc1F)[C@@H](c1cccc(O)c1)N1C(=O)N(CCNCC2CC2)C(=O)[C@]1(C)C3 (racemic) [Example 251, (3aSR,10RS)-2-[2-(Cyclopropylmethyl-amino)-ethyl]-7-fluoro-10-(3-hydroxy-phenyl)-6-methoxy-3a-methyl-3a,4,9,10-tetrahydro-2,9,10a-triaza-cyclopenta[b]fluorene-1,3-dione]	≤ 39.8 nM
COc1cc2c3c([nH]c2cc1F)[C@@H](c1cccc(O)c1)N1C(=O)N(CCNCC(C)C)C(=O)[C@]1(C)C3 (racemic) [Example 252, (3aSR,10RS)-7-Fluoro-10-(3-hydroxy-phenyl)-2-(2-isobutylamino-ethyl)-6-methoxy-3a-methyl-3a,4,9,10-tetrahydro-2,9,10-triaza-cyclopenta[b]fluorene-1,3-dione]	39.8 to 251 nM
COCCNCCN1C(=O)N2[C@H](c3cccc(O)c3)c3[nH]c4cc(F)c(OC)cc4c3C[C@@]2(C)C1=O (racemic) [Example 253, (3aSR,10RS)-7-Fluoro-10-(3-hydroxy-phenyl)-6-methoxy-2-[2-(2-methoxy-ethylamino)-ethyl]-3a-methyl-3a,4,9,10-tetrahydro-2,9,10a-triaza-cyclopenta[b]fluorene-1,3-dione]	39.8 to 251 nM
C=CCNCCN1C(=O)N2[C@H](c3cccc(O)c3)c3[nH]c4cc(F)c(OC)cc4c3C[C@@]2(C)C1=O (racemic) [Example 254, (3aSR,10RS)-2-(2-Allylamino-ethyl)-7-fluoro-10-(3-hydroxy-phenyl)-6-methoxy-3a-methyl-3a,4,9,10-tetrahydro-2,9,10a-triaza-cyclopenta[b]fluorene-1,3-dione]	39.8 to 251 nM
COc1cc2c3c([nH]c2cc1F)[C@@H](c1cccc(O)c1)N1C(=O)N(CCN(C)C)C(=O)[C@]1(C)C3 (racemic) [Example 255, (3aSR,10RS)-2-(2-Dimethylamino-ethyl)-7-fluoro-10-(3-hydroxy-phenyl)-6-methoxy-3a-methyl-3a,4,9,10-tetrahydro-2,9,10a-triaza-cyclopenta[b]fluorene-1,3-dione]	39.8 to 251 nM
COc1cc2c3c([nH]c2cc1F)[C@@H](c1cccc(O)c1)N1C(=O)N(CCNC(C)(C)C)C(=O)[C@]1(C)C3 (racemic) [Example 256, (3aSR,10RS)-2-(2-tert-Butylamino-ethyl)-7-fluoro-10-(3-hydroxy-phenyl)-6-methoxy-3a-methyl-3a,4,9,10-tetrahydro-2,9,10a-triaza-cyclopenta[b]fluorene-1,3-dione]	≤ 39.8 nM
CCN(C)CCN1C(=O)N2[C@H](c3cccc(O)c3)c3[nH]c4cc(F)c(OC)cc4c3C[C@@]2(C)C1=O (racemic) [Example 257, (3aSR,10RS)-2-[2-(Ethyl-methyl-amino)-ethyl]-7-fluoro-10-(3-hydroxy-phenyl)-6-methoxy-3a-methyl-3a,4,9,10-tetrahydro-2,9,10a-triaza-cyclopenta[b]fluorene-1,3-dione]	39.8 to 251 nM
CCN(CC)CCN1C(=O)N2[C@H](c3cccc(O)c3)c3[nH]c4cc(F)c(OC)cc4c3C[C@@]2(C)C1=O (racemic) [Example 258, (3aSR,10RS)-2-(2-Diethylamino-ethyl)-7-fluoro-10-(3-hydroxy-phenyl)-6-methoxy-3a-methyl-3a,4,9,10-tetrahydro-2,9,10a-triaza-cyclopenta[b]fluorene-1,3-dione]	39.8 to 251 nM
COc1cc2c3c([nH]c2cc1F)[C@@H](c1cccc(O)c1)N1C(=O)N(CCN(C)C(C)C)C(=O)[C@]1(C)C3 (racemic) [Example 259, (3aSR,10RS)-7-Fluoro-10-(3-hydroyx-phenyl)-2-[2-(isopropyl-methyl-amino)-ethyl]-6-methoxy-3a-methyl-3a,4,9,10-tetrahydro-2,9,10a-triaza-cyclopenta[b]fluorene-1,3-dione]	39.8 to 251 nM
